# Test results as given in US11524943B1 (Vivace Therapeutics, Inc., priority 2017, dated 2022).
# Tested on: HEK293T cells stably transfected with 8×TBD luciferase reporter and pRLTK
# Assay: YAP Reporter Assay (8×TBD firefly luciferase reporter)
# Assay type: cell-based
# Details: Homo sapiens, HEK-293T; HEK293T 8×TBD reporter cells, 24-hr incubation, top concentration 3 μM, 1:3 dilution, 10 points
# Method: HEK293T cells stably transfected with 8×TBD luciferase reporter and pRLTK in 384-well plates were treated with the test compounds, starting from 3 μM (final concentration in assay plate), 1:3 dilution, and 10 points in quadruplicates. Post 24-hr incubation with compounds at 37° C. and 5% CO2, cells were lysed and 8×TBD-driven firefly luciferase and control TK-driven renilla luciferase activities were measured using Promega Dual-Luciferase Reporter Assay System.
# Reagents: The reagents used for this study are: DMEM: Invitrogen #11960077, Dual-Glo Luciferase Assay System: Promega-E2980, Puromycin Dihydrochloride: Invitrogen-A1113803, 384-well plate: PerkinElmer-6007480, L-GLUTAMINE: Invitrogen-25030164, Hygromycin B: Invitrogen-10687010, and Penicillin-Streptomycin: Merk-TMS-AB2-C
# Media: The media used for this assay were: Culture Medium: DMEM+1 ug/mL puromycin+200 ug/mL hygromycin (with 10% FBS+1 mM L-glutamine); and Assay Medium: DMEM (with 10% FBS+1 mM L-glutamine+1×P/S).
# Cell Plating: The appropriate media was warmed at 37° C. by water bath: Culture Medium, Assay Medium, 1*D-PBS, 0.05% trypsin-EDTA. The cells were trypsinized after removing all media, then washed with 1* sterile D-PBS and then with 2 ml 0.05% trypsin-EDTA. The cells were then incubated at RT for one minute. Then 10 ml/75 cm2 flask Assay Medium was added to each flask. Using a 10 ml pipette, the cells were then gently resuspended in the media, until the clumps completely disappeared. The cells were then transferred into 50 ml centrifuge tubes and were centrifuged at 800 rpm for 5 mins. The medium was removed and the cells were resuspended with Assay Medium. An aliquot of cells was used to count the cell density (cells/ml). The cell suspension was then diluted with Assay Medium to a concentration of 6×10^4 cells/ml. 50 ul cells suspension was then plated to 384-well plate (PerkinElmer-6007480), 3×10^3 cells/well and the cells were incubated in an incubator at 37° C., 5% CO2.
# Compound Treatment: In the afternoon (incubation of the plate with 3-4 hrs), the test compounds were added by Echo, starting from 3 uM (final concentration in the assay plate), 1:3 dilution, 10 points, quadruplicates. The plate was placed at 37° C., 5% CO2 incubator for 24 hrs.
# Detection: The Dual-Glo Luciferase Reagent was prepared by transferring the contents of one bottle of Dual-Glo Luciferase Buffer to one bottle of Dual-Glo Luciferase Substrate to create the Dual-Glo Luciferase Reagent. Mixing was performed by inversion until the substrate was thoroughly dissolved. After mixing, the reagent was aliquoted into 15 ml tubes. In the afternoon (24 hrs post compound treatment), the DMEM+ medium in the 384 well plates were aspirated by Microplate Washer.
# Measuring firefly luciferase activity: 20 ul Dual-Glo Luciferase Reagent was added to the 384-well plates. The plates were protected from light to prevent interference with the assay. The plates were shaken for 1 min followed centrifuging plates at 1000 rpm for 30 seconds. After waiting at least 10 minutes, the firefly luminescence was measured by Envision.
# Measuring renilla luciferase activity: 20 ul Stop-Glo Reagent was added to the 384-well plates. The plates were shaken for 1 min and then centrifuged at 1000 rpm for 30 seconds. After waiting at least 10 minutes, the renilla luminescence was measured by Envision.
# Compound IC50 and maximum inhibition on the firefly luciferase and renilla luciferase activities were reported separately.
row,Structure (SMILES),IC50 [nM]
1,"CC(C)NC(=O)c1ccc(Nc2ccc(C(F)(F)F)cc2)c(-c2ccnc(N)c2)c1 [Compound 29, 3-(2-aminopyridin-4-yl)-N-isopropyl-4-((4-(trifluoromethyl)phenyl)amino) benzamide]",100 to 1000
2,"CC(=O)NCCOCCOCCNC(=O)c1ccc(Nc2ccc(C(F)(F)F)cc2)c(-c2nnn(C)n2)c1 [Compound 45, N-(2-(2-(2-acetamidoethoxy)ethoxy)ethyl)-3-(2-methyl-2H-tetrazol-5-yl)-4-((4-(trifluoromethyl)phenyl)amino) benzamide]",≤ 100
3,"Cn1nnc(-c2cc(C(=O)NCCOCCOCCNC(=O)OC(C)(C)C)ccc2Nc2ccc(C(F)(F)F)cc2)n1 [Compound 47, tert-butyl (2-(2-(2-(3-(2-methyl-2H-tetrazol-5-yl)-4-((4-(trifluoromethyl)phenyl)amino)benzamido)ethoxy)ethoxy)ethyl)carbamate]",100 to 1000
4,"O=C(O)c1ccc(Nc2ccc(C(F)(F)F)cc2)c(-c2ccc(Cl)cn2)c1 [Compound 52, 3-(5-chloro-2-pyridyl)-4-[4 (trifluoromethyl)anilino] benzoic acid]",≤ 100
5,"O=C(O)c1ccc(Nc2ccc(C(F)(F)F)cc2)c(-c2cccnn2)c1 [Compound 46, 3-pyridazin-3-yl-4-[4-(trifluoromethyl)anilino] benzoic acid]",≤ 100
6,"Cn1cnc(-c2cc(C(=O)NC3CC3)ccc2Nc2ccc(C(F)(F)F)cc2)c1 [Compound 37, N-cyclopropyl-3-(1-methylimidazol-4-yl)-4-[4 (trifluoromethyl)anilino] benzamide]",≤ 100
7,"CN(C)C(=O)c1ccc(Nc2cccc(C(F)(F)F)c2)c(-c2nnn(C)n2)c1 [Compound 19, N,N-dimethyl-3-(2-methyl-2H-tetrazol-5-yl)-4-((3-(trifluoromethyl)phenyl)amino) benzamide]",100 to 1000
8,"COC(=O)c1ccc(Nc2ccc(C(F)(F)F)cc2)c(-c2nnc(C3CC3)o2)c1 [Compound 53, methyl 3-(5-cyclopropyl-1,3,4-oxadiazol-2-yl)-4-((4-(trifluoromethyl)phenyl)amino)benzoate]",≤ 100
9,"CC(C)NC(=O)c1ccc(Nc2ccc(C(F)(F)F)cc2)c(-c2nnn(C)n2)c1 [Compound 11, N-isopropyl-3-(2-methyl-2H-tetrazol-5-yl)-4-((4-(trifluoromethyl)phenyl)amino) benzamide]",≤ 100
10,"CC(C)NC(=O)c1ccc(Nc2cccc(C(F)(F)F)c2)c(-c2nnn(C)n2)c1 [Compound 21, N-isopropyl-3-(2-methyl-2H-tetrazol-5-yl)-4-((3-(trifluoromethyl)phenyl)amino) benzamide]",≤ 100
11,"COC(=O)c1ccc(Nc2ccc(C(F)(F)F)cc2)c(-c2ccnc(N)c2)c1 [Compound 34, methyl 3-(2-amino-4-pyridyl)-4-[4-(trifluoromethyl)anilino] benzoate]",≤ 100
12,"CN(C)C(=O)c1ccc(Nc2ccc(C(F)(F)F)cc2)c(-c2nnn(C)n2)c1 [Compound 13, N,N-dimethyl-3-(2-methyl-2H-tetrazol-5-yl)-4-((4-(trifluoromethyl)phenyl)amino) benzamide]",100 to 1000
13,"O=C(O)c1ccc(Nc2ccc(C(F)(F)F)cc2)c(-c2ncccn2)c1 [Compound 40, 3-(pyrimidin-2-yl)-4-((4-(trifluoromethyl)phenyl)amino) benzoic acid]",≤ 100
14,"CCNC(=O)c1ccc(Nc2cccc(C(F)(F)F)c2)c(-c2nnn(C)n2)c1 [Compound 22, N-ethyl-3-(2-methyl-2H-tetrazol-5-yl)-4-((3-(trifluoromethyl)phenyl)amino) benzamide]",≤ 100
15,"O=C(O)c1ccc(Nc2ccc(C(F)(F)F)cc2)c(-c2nnc(C3CC3)o2)c1 [Compound 54, 3-(5-cyclopropyl-1,3,4-oxadiazol-2-yl)-4-((4-(trifluoromethyl)phenyl)amino) benzoic acid]",≤ 100
16,"COC(=O)c1ccc(Nc2ccc(C(F)(F)F)cc2)c(-c2cc(N)ncn2)c1 [Compound 56, methyl 3-(6-aminopyrimidin-4-yl)-4-[4-(trifluoromethyl)anilino] benzoate]",≤ 100
17,"O=C(O)c1ccc(Nc2ccc(C(F)(F)F)cc2)c(-c2cnccn2)c1 [Compound 43, 3-(pyrazin-2-yl)-4-((4-(trifluoromethyl)phenyl)amino) benzoic acid]",≤ 100
18,"COC(=O)c1ccc(Nc2ccc(C(=O)NC(C)C)cc2)c(-c2nnn(C)n2)c1 [Compound 12, methyl 4-((4-(isopropylcarbamoyl)phenyl)amino)-3-(2-methyl-2H-tetrazol-5-yl)benzoate]",1000 to 3000
19,COc1ccnc(-c2cc(C(=O)O)ccc2Nc2ccc(C(F)(F)F)cc2)c1 [Compound 50],≤ 100
20,"CCN(CC)C(=O)c1ccc(Nc2cccc(C(F)(F)F)c2)c(-c2nnn(C)n2)c1 [Compound 20, N,N-diethyl-3-(2-methyl-2H-tetrazol-5-yl)-4-((3-(trifluoromethyl)phenyl)amino) benzamide]",100 to 1000
21,"Cn1nnc(-c2cc(C(=O)NS(C)(=O)=O)ccc2Nc2ccc(C(F)(F)F)cc2)n1 [Compound 15, 3-(2-methyl-2H-tetrazol-5-yl)-N-(methylsulfonyl)-4-((4-(trifluoromethyl)phenyl)amino) benzamide]",≤ 100
22,"O=C(O)c1ccc(Nc2ccc(C(F)(F)F)cc2)c(-c2ccccn2)c1 [Compound 39, 3-(pyridin-2-yl)-4-((4-(trifluoromethyl)phenyl)amino) benzoic acid]",≤ 100
23,"Cn1nnc(-c2cc(C(N)=O)ccc2Nc2cccc(C(F)(F)F)c2)n1 [Compound 6, 3-(2-methyl-2H-tetrazol-5-yl)-4-((3-(trifluoromethyl)phenyl)amino) benzamide]",≤ 100
24,"CC(C)NC(=O)c1ccc(Nc2ccc(C(F)(F)F)cc2)c(-c2cn(C)cn2)c1 [Compound 36, N-Isopropyl-3-(-methylimidazol-4-yl)-4-[4-(trifluoromethyl)anilino] benzamide]",≤ 100
25,"Cn1nnc(-c2cc(C(=O)NCCOCCOCCOCCOCCNC(=O)OC(C)(C)C)ccc2Nc2ccc(C(F)(F)F)cc2)n1 [Compound 63, tert-butyl (1-(3-(2-methyl-2H-tetrazol-5-yl)-4-((4-(trifluoromethyl)phenyl)amino)phenyl)-1-oxo-5,8,11,14-tetraoxa-2-azahexadecan-16-yl)carbamate]",100 to 1000
